Experimental data: the supplement of paper PMC10307832

Tests used:
Experiment in all cases: relative viability (nuclei count vs DMSO), 5 days (fraction); higher = more cells survive
[1] = compound: Nc1ccn([C@@H]2O[C@H](CO)[C@@H](O)C2(F)F)c(=O)n1 [Gemcitabine] + CC(=O)c1c(C)c2cnc(Nc3ccc(N4CCNCC4)cn3)nc2n(C2CCCC2)c1=O [Palbociclib] (partner 0.5 µM)
Outline: (§1)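 Relative viability divides the nuclei count in treated wells by that in vehicle wells. Lung cancer cell lines were seeded in 1536-well plates, dosed by pin tool the next day, and fixed and stained after 5 days in one step with final 0.05% Triton X-100, 1% formaldehyde and 1 ug/ml Hoechst. Dosing was a single drug or a fixed anchor-drug dose plus five library-drug doses (not always all listed) in √10 steps, and values are medians of duplicate plates imaged at 4×.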

[2] = compound: Nc1ccn([C@@H]2O[C@H](CO)[C@@H](O)C2(F)F)c(=O)n1 [Gemcitabine] + Cc1nc(NC(=O)N2CCC[C@H]2C(N)=O)sc1-c1ccnc(C(C)(C)C(F)(F)F)c1 [Alpelisib] (partner 2 µM)
Outline: as §1

[3] = compound: Nc1ccn([C@@H]2O[C@H](CO)[C@@H](O)C2(F)F)c(=O)n1 [Gemcitabine] + Nc1nc2[nH]cc(CCc3ccc(C(=O)N[C@@H](CCC(=O)O)C(=O)O)cc3)c2c(=O)[nH]1 [Pemetrexed] (partner 0.2 µM)
Outline: as §1

[4] = compound: Nc1ccn([C@@H]2O[C@H](CO)[C@@H](O)C2(F)F)c(=O)n1 [Gemcitabine] + O=C(c1cc(Cc2n[nH]c(=O)c3ccccc23)ccc1F)N1CCN(C(=O)C2CC2)CC1 [Olaparib] (partner 8 µM)
Outline: as §1

Cell Line	relative viability ([1]; first compound 0.001 µM)	relative viability ([1]; first compound 0.003162 µM)	relative viability ([1]; first compound 0.01 µM)	relative viability ([1]; first compound 0.03162 µM)	relative viability ([1]; first compound 0.1 µM)	relative viability ([2]; first compound 0.001 µM)	relative viability ([2]; first compound 0.003162 µM)	relative viability ([2]; first compound 0.01 µM)	relative viability ([2]; first compound 0.03162 µM)	relative viability ([2]; first compound 0.1 µM)	relative viability ([3]; first compound 0.001 µM)	relative viability ([3]; first compound 0.003162 µM)	relative viability ([3]; first compound 0.01 µM)	relative viability ([3]; first compound 0.03162 µM)	relative viability ([3]; first compound 0.1 µM)	relative viability ([4]; first compound 0.001 µM)	relative viability ([4]; first compound 0.003162 µM)	relative viability ([4]; first compound 0.01 µM)	relative viability ([4]; first compound 0.03162 µM)	relative viability ([4]; first compound 0.1 µM)
LXF-289	0.606	0.604	0.428	0.127	0.14	1.04	1	0.737	0.123	0.114	0.901	0.964	0.642	0.102	0.0843	1.07	0.935	0.303	0.0848	0.0776
NCI-H23	0.383	0.245	0.158	0.156	0.139	0.57	0.242	0.108	0.129	0.115	0.555	0.223	0.147	0.143	0.143	0.293	0.132	0.0825	0.109	0.0995
NCI-H322M	0.463	0.396	0.336	0.452	0.425	0.562	0.292	0.245	0.294	0.271	0.658	0.367	0.273	0.329	0.363	0.564	0.445	0.356	0.369	0.411
NCI-H358	0.124	0.0834	0.0975	0.0732	0.08	0.64	0.236	0.154	0.175	0.151	0.145	0.148	0.146	0.118	0.108	0.689	0.321	0.146	0.101	0.0993
NCI-H441	0.242	0.163	0.178	0.13	0.123	0.602	0.327	0.138	0.149	0.12	0.277	0.282	0.217	0.16	0.115	0.651	0.241	0.187	0.161	0.116
NCI-H460	0.129	0.212	0.0945	0.0273	0.0115	0.684	0.484	0.0473	0.0144	0.0066	0.06	0.0638	0.0721	0.029	0.019	0.529	0.426	0.333	0.0343	0.022
NCI-H520	0.237	0.23	0.174	0.164	0.146	0.933	0.897	0.461	0.195	0.142	0.663	0.719	0.275	0.177	0.161	0.388	0.48	0.174	0.159	0.132
NCI-H647	0.388	0.287	0.0692	0.0695	0.044	1.08	0.174	0.0715	0.0975	0.0551	0.211	0.178	0.072	0.0569	0.0589	0.574	0.103	0.0533	0.0536	0.0389
NCI-H650	0.221	0.189	0.136	0.123	0.146	0.816	0.486	0.179	0.177	0.159	0.865	0.555	0.222	0.128	0.12	0.364	0.241	0.113	0.115	0.102
NCI-H661	0.394	0.409	0.411	0.241	0.237	0.594	0.503	0.185	0.177	0.172	0.895	0.998	0.891	0.299	0.216	0.78	0.783	0.655	0.274	0.232
NCI-H838	0.228	0.244	0.237	0.199	0.125	1.05	1.17	1.14	0.557	0.169	0.251	0.262	0.24	0.241	0.149	0.787	0.842	0.534	0.282	0.12
NCI-H1355	0.403	0.365	0.251	0.168	0.146	0.756	0.569	0.135	0.156	0.116	1	0.885	0.455	0.173	0.162	0.667	0.441	0.141	0.157	0.151
NCI-H1395	0.614	0.627	0.445	0.352	0.347	1.19	0.815	0.459	0.369	0.406	0.91	0.622	0.335	0.296	0.312	0.438	0.452	0.423	0.351	0.34
NCI-H1437	0.317	0.351	0.331	0.225	0.171	1.15	0.873	0.373	0.185	0.0956	0.285	0.325	0.27	0.276	0.254	0.622	0.781	0.488	0.325	0.225
NCI-H1651	0.509	0.496	0.536	0.311	0.136	0.923	0.967	0.889	0.159	0.0819	0.561	0.575	0.584	0.362	0.0991	0.182	0.193	0.187	0.138	0.075
NCI-H1666	0.603	0.664	0.651	0.596	0.578	0.863	0.92	0.364	0.232	0.279	0.88	0.842	0.842	0.699	0.52	0.777	0.707	0.748	0.76	0.597

Cell Line	relative viability ([1]; first compound 0.001 µM)	relative viability ([1]; first compound 0.003162 µM)	relative viability ([1]; first compound 0.01 µM)	relative viability ([1]; first compound 0.03162 µM)	relative viability ([1]; first compound 0.1 µM)	relative viability ([2]; first compound 0.001 µM)	relative viability ([2]; first compound 0.003162 µM)	relative viability ([2]; first compound 0.01 µM)	relative viability ([2]; first compound 0.03162 µM)	relative viability ([2]; first compound 0.1 µM)	relative viability ([3]; first compound 0.001 µM)	relative viability ([3]; first compound 0.003162 µM)	relative viability ([3]; first compound 0.01 µM)	relative viability ([3]; first compound 0.03162 µM)	relative viability ([3]; first compound 0.1 µM)	relative viability ([4]; first compound 0.001 µM)	relative viability ([4]; first compound 0.003162 µM)	relative viability ([4]; first compound 0.01 µM)	relative viability ([4]; first compound 0.03162 µM)	relative viability ([4]; first compound 0.1 µM)
NCI-H1734	0.318	0.293	0.174	0.149	0.131	0.567	0.627	0.213	0.153	0.0967	0.408	0.377	0.197	0.139	0.136	0.535	0.348	0.183	0.111	0.102
NCI-H1755	0.431	0.425	0.401	0.414	0.421	0.897	0.919	0.768	0.25	0.215	0.414	0.47	0.319	0.376	0.355	0.872	0.887	0.787	0.425	0.278
NCI-H1792	0.699	0.596	0.395	0.254	0.194	0.774	0.483	0.182	0.101	0.07	0.773	0.174	0.0569	0.0984	0.0556	0.578	0.0978	0.0544	0.112	0.0454
NCI-H1793	0.297	0.3	0.267	0.167	0.145	0.706	0.594	0.354	0.156	0.147	1.09	0.98	0.406	0.139	0.141	0.807	0.93	0.159	0.137	0.105
NCI-H1915	0.522	0.532	0.508	0.425	0.22	1.02	1.11	1.04	0.711	0.308	0.484	0.516	0.453	0.513	0.475	0.246	0.255	0.258	0.233	0.192
NCI-H1944	0.357	0.286	0.268	0.229	0.171	0.855	0.845	0.783	0.366	0.14	0.586	0.601	0.554	0.254	0.112	0.459	0.469	0.358	0.21	0.134
NCI-H1975	0.638	0.502	0.48	0.148	0.122	0.795	0.792	0.314	0.18	0.157	0.286	0.29	0.306	0.178	0.173	0.755	0.78	0.433	0.179	0.139
NCI-H1993	0.656	0.575	0.524	0.443	0.379	0.706	0.642	0.528	0.528	0.491	0.545	0.513	0.516	1.17	0.409	1.01	0.908	0.519	0.412	0.428
NCI-H2009	0.216	0.203	0.193	0.132	0.0838	1.15	0.552	0.276	0.12	0.112	1.08	0.882	0.473	0.127	0.0868	0.717	0.436	0.191	0.102	0.0738
NCI-H2023	0.354	0.39	0.218	0.138	0.0722	0.703	0.542	0.415	0.214	0.066	0.265	0.282	0.152	0.0833	0.0801	0.505	0.414	0.236	0.161	0.0679
NCI-H2085	0.441	0.433	0.316	0.314	0.3	0.892	0.959	0.765	0.57	0.429	0.94	0.882	0.827	0.772	0.406	0.756	0.786	0.699	0.597	0.426
NCI-H2087	0.266	0.197	0.193	0.165	0.136	1.26	0.872	0.38	0.15	0.14	0.666	0.581	0.263	0.113	0.105	0.69	0.413	0.254	0.0942	0.0872
NCI-H2126	0.323	0.367	0.312	0.29	0.281	0.749	0.705	0.728	0.504	0.255	0.628	0.742	0.628	0.577	0.3	0.888	0.933	0.867	0.562	0.262
NCI-H2170	0.408	0.394	0.266	0.184	0.13	0.85	0.767	0.412	0.181	0.169	0.289	0.259	0.314	0.127	0.119	0.591	0.636	0.258	0.091	0.104
NCI-H2228	0.734	0.229	0.142	0.135	0.106	0.74	0.534	0.144	0.123	0.134	0.348	0.332	0.166	0.092	0.112	0.627	0.333	0.152	0.144	0.0825
NCI-H2347	0.412	0.432	0.404	0.364	0.325	1.05	0.815	0.752	0.574	0.324	0.43	0.391	0.409	0.357	0.366	0.603	0.529	0.496	0.383	0.373
